Laboratory results: US12479866B2, “Boron-containing rho kinase inhibitors” (Percipiad, Inc., priority 2019, dated 2025)

How the values were obtained:
[1] = Octanol/buffer partition coefficient (log D7.4); assay type: physicochemical; conditions: n-octanol / pH 7.4 phosphate buffer, read-out: log D at pH 7.4
Experimental: In a single incubation, 15 μL of a 10 mM DMSO solution of each test article was added to test tubes, which contained 0.75 mL of n-octanol and 0.75 mL of pH 7.4 phosphate buffer. Testosterone was also introduced to each tube as an internal control, also at a dosing concentration of 100 μM. These samples were gently mixed on a benchtop rotator for 1 hour at room temperature. The tubes were then removed from the rotator and the aqueous and organic phases were allowed to separate for 1 hour. […] As a methods control, the log D of testosterone was also measured at a satisfactory value.

primary hTM cells = experiment: RealTime-Glo MT cell viability assay in hTM cells; assay type: cell-based; conditions: all concentrations and time points (24 h, 48 h, 72 h)
Text: Commercially available RealTime-Glo™ MT cell viability (Promega, catalog #G9712) and CellTox™ Green cytotoxicity (Promega, catalog #G8731) assays were used in assessing effect of compounds on primary hTM cell viability and cytotoxicity. The RealTime-Glo™ MT cell viability assay is a nonlytic, homogeneous, bioluminescent method that determines the number of viable cells in culture by measuring the reducing potential of cells and thus metabolism (MT). Viable cells reduce the proprietary pro-substrate to generate a substrate for NanoLuc® luciferase. This substrate diffuses from cells into the surrounding culture medium, where it is rapidly used by the NanoLuc® Enzyme to produce a luminescent signal. In a contrasting and complementary manner, CellTox™ Green cytotoxicity assay measures changes in membrane integrity that occur as a result of cell death. This assay system uses a proprietary asymmetric cyanine dye that is excluded from viable cells but preferentially stains the dead cells' DNA. The fluorescent signal produced by the dye binding to the dead-cell DNA is proportional to cytotoxicity.
Human™ cells were cultured and maintained as described in Example 12. Fifty μl cells (600 cells) in culture media containing compound, 25 μl media with RealTime-Glo™ MT cell viability assay reagent and 25 μl media with CellTox™ Green cytotoxicity assay reagent were plated in black, clear bottom 96-well plates. Light emitted by luciferase and fluorescence emitted by dye binding to DNA (excitation 485 nm and emission 525 nm) were measured at 24 h, 48 h, and 72 h after incubation using plate based luminescence and fluorescence plate readers.

[2] = tested on: New Zealand White rabbits; experiment: Phenol-induced chronic model of glaucoma, IOP; assay type: in vivo, rabbit
Text: For these efficacy studies methods were followed as described in (Jacob et al, A promising drug candidate for the treatment of glaucoma based on a P2Y6-receptor agonist, Purinergic Signal. 2018 September; 14 (3): 271-284). In all studies, male New Zealand White rabbits were acclimatized for one week before the study. Animals were given food and water ad libitum. Body weights of rabbits ranged from 2 to 3 kg. Animals were trained for the IOP measurement procedure during the acclimation period in order to reduce stress and obtaining more accurate measurements during the study. IOP measurements were taken using the Icare® TONOVET Plus tonometer. […] The technique of use of the […] tonometer in rabbits was described previously (Gloe et al, Validation of the Icare® TONOVET Plus Rebound Tonometer in Normal Rabbit Eyes, Exp Eye Res. 2019 August; 185:107698). IOP readings are obtained only when the tonometer is held an appropriate distance and in the correct plane relative to the ocular surface. Green light appears when the orientation is correct, thereby minimizing operator errors. […] IOP was measured daily after phenol injection and IOP doubled in 8 days after phenol injection. […] IOP readings were taken on mornings of days 8 to 12 before compound application and 0.5 and 1 hour after morning application. […]

ROCK2 = ROCK2 (Homo sapiens (Human), UniProt O75116); experiment: Stability in varied buffers and temperatures, measured by ROCK2 inhibition; assay type: physicochemical
ROCK2, sequence (O75116 whole entry): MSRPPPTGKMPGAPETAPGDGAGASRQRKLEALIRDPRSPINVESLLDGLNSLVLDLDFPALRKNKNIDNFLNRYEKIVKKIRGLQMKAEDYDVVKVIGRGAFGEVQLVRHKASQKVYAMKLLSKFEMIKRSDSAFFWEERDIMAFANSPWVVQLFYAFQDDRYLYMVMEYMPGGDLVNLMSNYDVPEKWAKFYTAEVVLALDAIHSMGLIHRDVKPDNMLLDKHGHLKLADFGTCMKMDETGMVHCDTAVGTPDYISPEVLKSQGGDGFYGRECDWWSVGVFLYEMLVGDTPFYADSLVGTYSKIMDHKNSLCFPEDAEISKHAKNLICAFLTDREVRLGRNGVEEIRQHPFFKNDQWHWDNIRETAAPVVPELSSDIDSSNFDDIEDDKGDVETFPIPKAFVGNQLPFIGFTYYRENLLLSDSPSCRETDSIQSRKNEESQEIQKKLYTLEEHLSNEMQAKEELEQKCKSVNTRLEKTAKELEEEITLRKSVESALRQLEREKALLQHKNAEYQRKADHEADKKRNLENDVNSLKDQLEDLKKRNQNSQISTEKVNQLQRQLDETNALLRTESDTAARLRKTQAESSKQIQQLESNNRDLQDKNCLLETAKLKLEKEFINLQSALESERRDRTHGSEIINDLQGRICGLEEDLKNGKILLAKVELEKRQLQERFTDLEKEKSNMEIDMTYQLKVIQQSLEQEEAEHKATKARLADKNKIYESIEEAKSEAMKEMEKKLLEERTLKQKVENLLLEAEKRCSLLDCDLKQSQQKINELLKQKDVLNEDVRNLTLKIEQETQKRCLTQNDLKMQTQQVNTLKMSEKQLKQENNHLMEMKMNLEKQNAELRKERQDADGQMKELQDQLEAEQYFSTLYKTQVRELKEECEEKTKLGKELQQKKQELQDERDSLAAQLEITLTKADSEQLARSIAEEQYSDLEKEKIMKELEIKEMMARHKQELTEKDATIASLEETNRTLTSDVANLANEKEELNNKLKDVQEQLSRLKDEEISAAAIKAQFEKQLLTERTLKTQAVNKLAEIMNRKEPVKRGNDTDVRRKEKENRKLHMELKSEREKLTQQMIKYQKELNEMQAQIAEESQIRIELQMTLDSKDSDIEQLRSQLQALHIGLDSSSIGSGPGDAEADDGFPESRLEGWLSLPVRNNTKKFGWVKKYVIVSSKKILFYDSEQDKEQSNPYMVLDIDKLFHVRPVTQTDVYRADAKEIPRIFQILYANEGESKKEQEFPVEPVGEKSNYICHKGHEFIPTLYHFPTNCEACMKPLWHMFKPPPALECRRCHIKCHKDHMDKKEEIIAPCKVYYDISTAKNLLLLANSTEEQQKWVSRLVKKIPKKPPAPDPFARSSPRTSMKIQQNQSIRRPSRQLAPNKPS

Which results are given for `Cl.Cl.NCC(C(=O)Nc1ccc2cnccc2c1)c1ccc(B(O)O)cc1` (centres unmarked) [Compound 10•2HCl]?
logD [1]: 0.822; Effect on viability (in words) (primary hTM cells): no effect on viability or membrane integrity; Effect on IOP after first application ([2]; 1 mg/ml (2.34 mM) in saline, day 8 after phenol injection): decrease of IOP to normal levels within 1 hour after application; Effect of subsequent twice daily application on IOP ([2]; 1 mg/ml twice daily, days 8 to 12): maintained normal IOP; % ROCK2 inhibition at 20 nM (ROCK2; 25 mM Borate pH 7 (0.5 mg/ml), 15 days at 23° C.): 36%; % ROCK2 inhibition at 20 nM (ROCK2; 25 mM Borate, pH 7 (0.5 mg/ml), 15 days at −20° C.): 34%; % ROCK2 inhibition at 20 nM (ROCK2; 25 mM Borate, pH 7, 150 mM NaCl (0.5 mg/ml), 15 days at 23° C.): 32%; Stability in solution (ROCK2; pH 5 and 7 buffers, room temperature): stable in pH 5 and 7 buffers at room temperature for 15 days
